Literature values in paper PMC3880798 (Clinical cancer research : an official journal of the …, 2013).
Read-outs that look alike come from different tables or passages of the source.

Legend:
GIST = conditions: cited from earlier work
c-Kit = conditions: intact cellular systems; cited from earlier work
[1] = cited from earlier work

## Cc1ccc(NC(=O)c2ccc(CN3CCN(C)CC3)cc2)cc1Nc1nccc(-c2cccnc2)n1 [imatinib]
GIST
  Median time to progression: approximately 2 years
GIST; first-line
  Median duration of response: about 2 years
c-Kit
  Potency for wild-type versus mutant c-Kit: significantly lower potency for wild-type c-Kit relative to mutant c-Kit

## Cc1cn(-c2cc(NC(=O)c3ccc(C)c(Nc4nccc(-c5cccnc5)n4)c3)cc(C(F)(F)F)c2)cn1 [nilotinib]
GIST
  Disease stabilization: 38%
  Median duration of disease stabilization: 12 weeks

## Cc1ccc(Nc2nccc(N(C)c3ccc4c(C)n(C)nc4c3)n2)cc1S(N)(=O)=O [pazopanib]
[1]
  Patients with proteinuria: 51%

## CCN(CC)CCNC(=O)c1c(C)[nH]c(/C=C2\C(=O)Nc3ccc(F)cc32)c1C [sunitinib]
GIST; standard second-line therapy
  Median time to progression: 27 weeks
[1]
  Incidence of PPE: up to 20%
